What follows are molecules tested against T1, LPA/S1P GPCR of interest (Homo sapiens, UniProt Q92633) (assay: Beta-Arrestin based assay (PathHunter)).
T1 construct: host or cells: CHO
Type: cell-based
Description: CMV promoter based DNA constructs expressing a fusion of the LPA/S1P GPCR of interest and ProLink™ tag were used to transfect EA Parental™ CHO cells (DiscoverX, Fremont, Calif.) using a FuGENE® transfection kit (Roche). Beta-Arrestin based assays were conducted 24-48 hrs post transfection using PathHunter® assay kits (DiscoverX, Fremont, Calif.). Agonist and antagonist assays were performed in quadruplicate in white 384 well plates. End point luminescence data were plotted and fit to a 4 parameter logistic function to obtain IC50 values. For antagonist assays, an IC80 concentration of agonist (LPA) equal to 0.5 micromolar was used.

T1 sequence (Q92633 whole entry): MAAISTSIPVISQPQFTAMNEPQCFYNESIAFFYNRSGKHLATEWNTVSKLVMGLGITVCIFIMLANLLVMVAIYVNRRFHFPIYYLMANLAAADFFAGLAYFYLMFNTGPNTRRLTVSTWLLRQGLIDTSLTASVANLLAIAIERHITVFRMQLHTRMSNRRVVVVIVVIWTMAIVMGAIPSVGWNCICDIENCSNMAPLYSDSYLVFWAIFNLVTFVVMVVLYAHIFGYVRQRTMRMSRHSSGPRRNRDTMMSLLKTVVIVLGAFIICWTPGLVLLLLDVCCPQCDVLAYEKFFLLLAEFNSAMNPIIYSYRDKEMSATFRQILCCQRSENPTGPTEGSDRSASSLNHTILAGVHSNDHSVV

Row | SMILES | EC50 [nM]
1 | C[C@@H](OC(=O)Nc1c(-c2cc3sc(-c4ccc(CC(=O)O)nc4)cc3s2)cnn1C)c1ccccc1 [IT214] | 50 to 500
2 | Cc1cc(-c2cc3sc(-c4snc(C)c4NC(=O)O[C@H](C)c4ccccc4)cc3s2)c(F)cc1C1(C(=O)O)CC1 [IT338] | 50 to 500
3 | C[C@@H](OC(=O)Nc1c(-c2cc3sc(-c4ccc(-c5nnc(CC(=O)O)o5)cc4)cc3s2)cnn1C)c1ccccc1 [IT206] | > 500
4 | Cc1nsc(-c2cc3sc(-c4ccc5c(C6(C(=O)O)CC6)coc5c4)cc3s2)c1NC(=O)O[C@H](C)c1ccccc1 [IT397] | > 500
5 | C[C@@H](OC(=O)Nc1c(-c2cc3sc(-c4ccc(C5(C(=O)O)CC5)c(C(F)(F)F)c4)cc3s2)nnn1C)c1ccccc1 [IT380] | 50 to 500
6 | C[C@@H](OC(=O)Nc1c(-c2cc3sc(-c4ccc(-c5nnc(C6(C(=O)O)CC6)o5)cc4)cc3s2)cnn1C)c1ccccc1 [IT217] | > 500
7 | COc1cc(-c2cc3sc(-c4snc(C)c4NC(=O)O[C@H](C)c4ccccc4)cc3s2)ccc1CC(=O)O [IT219] | > 500
8 | Cc1noc(-c2ccc(-c3ccc(Oc4ccc(C(=O)O)s4)cc3)cc2)c1NC(=O)O[C@H](C)c1ccccc1 [IT409] | 50 to 500
9 | C[C@@H](OC(=O)NC1=C(c2ccc(-c3cc(F)c(OC(C)(C)C(=O)O)c(F)c3)cc2)OC2C=CC=CC12)c1ccccc1 (stereo partly shown) [IT501] | 50 to 500
10 | Cc1nsc(-c2cc3sc(-c4ccc(CC(=O)O)cc4Cl)cc3s2)c1NC(=O)O[C@H](C)c1ccccc1 [IT161] | > 500
11 | COc1cc(C2(C(=O)O)CC2)c(OC)cc1-c1cc2sc(-c3cnn(C)c3NC(=O)O[C@H](C)c3ccccc3)cc2s1 [IT414] | > 500
12 | Cc1nsc(-c2cc3sc(-c4cc(Cl)c(C5(C(=O)O)CC5)cc4F)cc3s2)c1NC(=O)O[C@H](C)c1ccccc1 [IT286] | 50 to 500
13 | C[C@@H](OC(=O)Nc1c(-c2ccc(C#CC(=O)N[C@H](C(=O)O)c3ccccc3)cc2)cnn1C)c1ccccc1 [IT402] | > 500
14 | Cc1nsc(-c2cc3sc(-c4ccc(C5(C(=O)O)CC5)cc4Cl)cc3s2)c1NC(=O)O[C@H](C)c1ccccc1 [IT391] | 50 to 500
15 | C[C@@H](OC(=O)Nc1c(-c2cc3sc(-c4ccc(C5(C(=O)O)CC5)nc4)cc3s2)cnn1C)c1ccccc1 [IT269] | 50 to 500
16 | C[C@@H](OC(=O)Nc1c(-c2ccc(C#CC(=O)NC3(C(=O)O)CC3)cc2)cnn1C)c1ccccc1 [IT405] | > 500
17 | Cc1nsc(-c2cc3sc(-c4ccc(CC(=O)O)c(S(C)(=O)=O)c4)cc3s2)c1NC(=O)O[C@H](C)c1ccccc1 [IT433] | > 500
18 | C[C@@H](OC(=O)Nc1c(-c2cc3sc(-c4cc(F)c(Oc5ncccc5C(=O)O)c(F)c4)cc3s2)cnn1C)c1ccccc1 [IT470] | < 50
19 | COc1cc(-c2cc3sc(-c4cnn(C)c4NC(=O)O[C@H](C)c4ccccc4)cc3s2)ccc1C1(C(=O)O)CC1 [IT329] | 50 to 500
20 | COc1cc(C2(C(=O)O)CC2)c(OC)cc1-c1cc2sc(-c3nnn(C)c3NC(=O)O[C@H](C)c3ccccc3)cc2s1 [IT415] | > 500
21 | C[C@@H](OC(=O)Nc1c(-c2cc3sc(-c4cnc(C5(C(=O)O)CC5)s4)cc3s2)cnn1C)c1ccccc1 [IT249] | 50 to 500
22 | C[C@@H](OC(=O)Nc1c(-c2cc3sc(-c4cnc(C5(C(=O)O)CC5)c(F)c4)cc3s2)nnn1C)c1ccccc1 [IT393] | < 50
23 | Cc1noc(-c2ccc(-c3ccc(Oc4ncoc4C(=O)O)cc3)cc2)c1NC(=O)O[C@H](C)c1ccccc1 [IT419] | 50 to 500

Row | SMILES | EC50 [nM]
24 | Cc1nsc(-c2cc3sc(-c4ccc(C5(C(=O)O)CC5)cn4)cc3s2)c1NC(=O)O[C@H](C)c1ccccc1 [IT426] | 50 to 500
25 | Cc1cc(-c2cc3sc(-c4cnn(C)c4NC(=O)O[C@H](C)c4ccccc4)cc3s2)c(F)cc1CC(=O)O [IT243] | > 500
26 | COc1cc(-c2cc3sc(-c4nnn(C)c4NC(=O)O[C@H](C)c4ccccc4)cc3s2)c(OC)cc1CC(=O)O [IT350] | > 500
27 | Cc1cc(C2(C(=O)O)CC2)c(F)cc1-c1cc2sc(-c3snc(C)c3NC(=O)O[C@H](C)c3ccccc3)cc2s1 [IT343] | < 50
28 | C[C@@H](OC(=O)Nc1c(-c2cc3sc(-c4ccc(C5(C(=O)O)CC5)s4)cc3s2)nnn1C)c1ccccc1 [IT273] | 50 to 500
29 | Cc1noc(-c2ccc(NC(=O)c3csc(C4(C(=O)O)CC4)n3)cc2)c1NC(=O)O[C@H](C)c1ccccc1 [IT152] | > 500
30 | C[C@@H](OC(=O)Nc1c(-c2cc3sc(-c4ccc5scc(CC(=O)O)c5c4)cc3s2)cnn1C)c1ccccc1 [IT353] | 50 to 500
31 | Cc1nsc(-c2cc3sc(-c4ccc5[nH]c(C6(C(=O)O)CC6)nc5c4)cc3s2)c1NC(=O)O[C@H](C)c1ccccc1 [IT421] | > 500
32 | COc1cc(C2(C(=O)O)CC2)ccc1-c1cc2sc(-c3nnn(C)c3NC(=O)O[C@H](C)c3ccccc3)cc2s1 [IT357] | 50 to 500
33 | C[C@@H](OC(=O)Nc1c(-c2ccc(C#CC(=O)NCC(=O)O)cc2)cnn1C)c1ccccc1 [IT398] | > 500
34 | C[C@@H](OC(=O)Nc1c(-c2cc3sc(-c4ccc5occ(C6(C(=O)O)CC6)c5c4)cc3s2)nnn1C)c1ccccc1 [IT335] | > 500
35 | Cc1nsc(-c2cc3sc(-c4ccc(-c5nnc(CC(=O)O)s5)cc4)cc3s2)c1NC(=O)O[C@H](C)c1ccccc1 [IT213] | > 500
36 | Cc1cc(-c2cc3sc(-c4snc(C)c4NC(=O)O[C@H](C)c4ccccc4)cc3s2)ccc1CC(=O)O [IT292] | > 500
37 | C[C@@H](OC(=O)Nc1c(-c2cc3sc(-c4ccc(CC(=O)O)c(S(C)(=O)=O)c4)cc3s2)cnn1C)c1ccccc1 [IT445] | > 500
38 | Cc1cc(CC(=O)O)c(F)cc1-c1cc2sc(-c3snc(C)c3NC(=O)O[C@H](C)c3ccccc3)cc2s1 [IT252] | > 500
39 | Cc1noc(-c2ccc3c(c2)CCCc2cc(CC(=O)O)ccc2-3)c1NC(=O)O[C@H](C)c1ccccc1 [IT280] | < 50
40 | C[C@@H](OC(=O)Nc1c(-c2cc3sc(-c4ccc(C5(C(=O)O)CC5)cc4C(F)(F)F)cc3s2)cnn1C)c1ccccc1 [IT247] | 50 to 500
41 | Cc1nsc(-c2cc3sc(-c4ccc(C5(C(=O)O)CC5)cc4C(F)(F)F)cc3s2)c1NC(=O)O[C@H](C)c1ccccc1 [IT248] | > 500
42 | COc1cc(-c2cc3sc(-c4nnn(C)c4NC(=O)O[C@H](C)c4ccccc4)cc3s2)cnc1C1(C(=O)O)CC1 [IT358] | 50 to 500
43 | C[C@@H](OC(=O)Nc1c(-c2cc3sc(-c4ccc5c(CC(=O)O)c[nH]c5c4)cc3s2)cnn1C)c1ccccc1 [IT377] | > 500
44 | C[C@@H](OC(=O)Nc1scnc1C#Cc1cc2sc(C3(C(=O)O)CC3)cc2s1)c1ccccc1 [IT116] | > 500
45 | Cc1nsc(-c2cc3sc(-c4ccc(-c5nnc(CC(=O)O)o5)cc4)cc3s2)c1NC(=O)O[C@H](C)c1ccccc1 [IT207] | > 500
46 | C[C@@H](OC(=O)Nc1c(-c2cc3sc(-c4ccc(CC(=O)O)c(C(F)(F)F)c4)cc3s2)nnn1C)c1ccccc1 [IT223] | 50 to 500

Row | SMILES | EC50 [nM]
47 | C[C@@H](OC(=O)Nc1c(-c2cc3sc(-c4cc(F)c(CC(=O)O)cc4F)cc3s2)nnn1C)c1ccccc1 [IT328] | 50 to 500
48 | Cc1cc(-c2cc3sc(-c4nnn(C)c4NC(=O)O[C@H](C)c4ccccc4)cc3s2)ccc1C1(C(=O)O)CC1 [IT324] | 50 to 500
49 | Cc1nsc(-c2cc3sc(-c4ccc(C5(C(=O)O)CC5)s4)cc3s2)c1NC(=O)O[C@H](C)c1ccccc1 [IT274] | 50 to 500
50 | Cc1nsc(-c2cc3sc(-c4ccc(CC(=O)O)c(C(F)(F)F)c4)cc3s2)c1NC(=O)O[C@H](C)c1ccccc1 [IT204] | > 500
51 | C[C@@H](OC(=O)Nc1c(-c2cc3sc(-c4ccc5occ(CC(=O)O)c5c4)cc3s2)cnn1C)c1ccccc1 [IT332] | 50 to 500
52 | Cc1nsc(-c2cc3sc(C4CCC(C(=O)O)C4)cc3s2)c1NC(=O)O[C@H](C)c1ccccc1 (stereo partly shown) [IT276] | > 500
53 | Cc1cc(C2(C(=O)O)CC2)ccc1-c1cc2sc(-c3snc(C)c3NC(=O)O[C@H](C)c3ccccc3)cc2s1 [IT361] | < 50
54 | C[C@@H](OC(=O)Nc1c(-c2cc3sc(-c4ccc5scc(C6(C(=O)O)CC6)c5c4)cc3s2)nnn1C)c1ccccc1 [IT372] | > 500
55 | Cc1nsc(-c2cc3sc(-c4ccc(CC(=O)O)c5ccccc45)cc3s2)c1NC(=O)O[C@H](C)c1ccccc1 [IT317] | > 500
56 | COc1cc(-c2cc3sc(-c4snc(C)c4NC(=O)O[C@H](C)c4ccccc4)cc3s2)c(OC)cc1CC(=O)O [IT351] | > 500
57 | Cn1ncc(C#Cc2cc3sc(C4(C(=O)O)CC4)cc3s2)c1N [IT113] | > 500
58 | COc1cc(-c2cc3sc(-c4snc(C)c4NC(=O)O[C@H](C)c4ccccc4)cc3s2)cnc1C1(C(=O)O)CC1 [IT359] | 50 to 500
59 | C[C@@H](OC(=O)Nc1c(-c2ccc(-c3nnc(C4(C(=O)O)CC4)s3)cc2)nnn1C)c1ccccc1 [IT208] | > 500
60 | COc1cc(C2(C(=O)O)CC2)ccc1-c1cc2sc(-c3cnn(C)c3NC(=O)O[C@H](C)c3ccccc3)cc2s1 [IT264] | 50 to 500
61 | Cc1nsc(-c2cc3sc(-c4ccc(C5(C(=O)O)CC5)c(F)c4F)cc3s2)c1NC(=O)O[C@H](C)c1ccccc1 [IT366] | < 50
62 | Cc1nsc(-c2cc3sc(-c4ccc5occ(CC(=O)O)c5c4)cc3s2)c1NC(=O)O[C@H](C)c1ccccc1 [IT333] | 50 to 500
63 | Cc1nsc(-c2cc3sc(-c4ccc(C5(C(=O)O)CC5)c(Cl)c4)cc3s2)c1NC(=O)O[C@H](C)c1ccccc1 [IT267] | 50 to 500
64 | C[C@@H](OC(=O)Nc1c(-c2cc3sc(-c4ccc(CC(=O)O)c5ccccc45)cc3s2)cnn1C)c1ccccc1 [IT319] | > 500
65 | C[C@@H](OC(=O)Nc1nn(C)cc1-c1ccc(-c2cc(F)c(Oc3ncccc3C(=O)O)c(F)c2)cc1)c1ccccc1 [IT472] | > 500
66 | C[C@@H](OC(=O)Nc1c(-c2cc3sc(-c4ccc(C5(C(=O)O)CC5)c(S(C)(=O)=O)c4)cc3s2)nnn1C)c1ccccc1 [IT442] | > 500
67 | Cc1cc(C2(C(=O)O)CC2)c(F)cc1-c1cc2sc(-c3cnn(C)c3NC(=O)O[C@H](C)c3ccccc3)cc2s1 [IT342] | < 50
